# Data as given in patent US10100054B1, “Pyrido[2,3-d]pyrimidines as anticancer agents” (KING SAUD UNIVERSITY, priority 2018, dated 2018).
# How the values were obtained:
# [1] = target: PI3K (p110a/p85a) (Homo sapiens, UniProt P42336); test: Kinase screening (radiometric or ADP-Glo assay); assay type: biochemical; conditions: negative values: inhibition, positive values: activation of target activity
# Experimental: (§1) The in vitro enzyme inhibition determination for the pyrido[2,3-d]pyrimidine derivatives was performed against a range of five protein kinases [PDGFR beta, EGFR, CDK4/Cyclin D1, PI3K (p100b/p85a), and PI3K (p100a/p85a)], including two concentrations (50 & 100 μM) in single measurements using the radiometric or ADP-Glo assay method. The intra-assay variability was determined to be less than 10%. Inhibition of target activity by the compound gives negative (−) values, while activation of target activity gives positive (+) value.
# (§2) The pyrido[2,3-d]pyrimidine derivative 5 was supplied by Kinexus as a powder, and a stock solution was made in DMSO. The stock solution was then diluted to form an assay stock solution, and this was used to profile against the protein kinases and lipid protein kinases [PDGFR beta, EGFR, CDK4/Cyclin D1, PI3K (p100b/p85a), and PI3K (p100a/p85a)]. The assay condition for the protein kinase targets was optimized to yield acceptable enzymatic activity. In addition, the assays were optimized to give high signal-to-noise ratio.
# (§3) For Protein Kinase (PK) Assays, a radioisotope assay format was used for profiling evaluation of PK targets and all assays were carried out in a designated radioactive working area. PK assays (in singlicate) were performed at ambient temperature for 30 min in a final volume of 25 μl according to the following assay reaction recipe: Component 1:5 μl of diluted active PK target (˜10-50 nM final concentration); Component 2:5 μl of stock solution of substrate (1-5 μg of peptide substrate); Component 3:5 μl of kinase assay buffer; Component 4:5 μl of compound (50 μM) or 10% DMSO; and Component 5:5 μl of ^33P-ATP (250 μM stock solution, 0.8 μCi).
# (§4) The assay was initiated by the addition of ^33P-ATP, and the reaction mixture incubated at ambient temperature for 30 minutes. After the incubation period, the assay was terminated by spotting 10 μl of the reaction mixture onto Multiscreen phosphocellulose P81 plate. The Multiscreen phosphocellulose P81 plate was washed 3 times for approximately 15 min each in a 1% phosphoric acid solution. The radioactivity on the P81 plate was counted in the presence of scintillation fluid in a Trilux scintillation counter. Blank control was set up that included all the assay components except the addition of the appropriate substrate (replaced with equal volume of assay dilution buffer). The corrected activity for PK target was determined by removing the blank control value.
# [2] = target: PDGFRβ (Homo sapiens, UniProt P09619); test: Kinase screening (radiometric or ADP-Glo assay); assay type: biochemical
# Experimental: as §1, §2, §3, §4
# [3] = target: EGFR (Homo sapiens, UniProt P00533); test: Kinase screening (radiometric or ADP-Glo assay); assay type: biochemical
# Experimental: as §1, §2, §3, §4
# [4] = target: CDK4/CyclinD1 (Homo sapiens, UniProt P11802); test: Kinase screening (radiometric or ADP-Glo assay); assay type: biochemical
# Experimental: as §1, §2, §3, §4
# [5] = system: A549; test: In vitro anticancer screening, MTT cell viability; assay type: cell-based; conditions: Homo sapiens; for inhibition at 100 µM: A549, 100 μM dose, read-out: Growth inhibition (%)
# Experimental: (§5) Anticancer activity screening was adopted against five cancer cell lines, viz., HepG2, PC-3, HCT116, MCF-7, A549, and doxorubicin was used as a reference standard at 100 micromole.
# (§6) Cell viability was assessed by the mitochondrial dependent reduction of yellow MTT (3-(4,5-dimethylthiazol-2-yl)-2,5-diphenyl tetrazolium bromide) to purple formazan. All the following procedures were done in a sterile area using a laminar air flow cabinet of class II biosafety (Baker, SG403INT, Sanford, Me., USA). Cells were suspended in DMEM medium for PC-3, and RPMI1640 in case of A-549, MCF-7, HCT-116 and HePG-2. The media are supplemented with 1% antibiotic antimycotic mixture (10,000 U ml^−1 Potassium Penicillin, 10,000 μg ml^−1 Streptomycin Sulfate and 25 μg ml^−1 Amphotericin B), 1% L-glutamine and 10% fetal bovine serum (complete growth medium) and kept at […] under 5% CO2. Cells were batch cultured for 10 days, then seeded at a concentration of 10×10^3 cells/well in fresh complete growth medium in 96-well Microtiter plastic plates at 37° C. for 24 h under 5% CO2 and a humid atmosphere using a water jacketed carbon dioxide incubator (Sheldon, TC2323, Cornelius, Oreg., USA). Media was aspirated, fresh medium (without serum) was added, and cells were incubated either alone (negative control) or with serial dilutions of each sample. After 48 h of incubation, the medium was aspirated, 40 μl MTT salt (2.5 μg ml^−1) was added to each well and incubated for a further four hours at 37° C. under 5% CO2. To stop the reaction and dissolving the formed crystals, 200 μl of 10% sodium dodecyl sulfate (SDS) in deionized water was added to each well and incubated overnight at 37° C. The absorbance was then measured using a microplate multi-well reader ELISA reader (Bio-Rad Laboratories Inc., model 3350, Hercules, Calif., USA) at 595 nm and a reference wavelength of 620 nm. A statistical significance was tested between samples and negative control (cells with vehicle) using independent t-test by SPSS 11 program. DMSO is the vehicle used for dissolution of plant extracts, and its final concentration in the cells was less than 0.2%. The percentage of change in viability was calculated according to the formula: (average absorbance of extract/average absorbance of negative control)−1)×100. A probit analysis was carried for IC50 determination using SPSS 11 program.
# [6] = system: HepG2; test: In vitro anticancer screening, MTT cell viability; assay type: cell-based; conditions: Homo sapiens; for inhibition at 100 µM: HepG2, 100 μM dose, read-out: Growth inhibition (%); for IC50: HepG2, MTT, 48 h
# Experimental: as §5, §6
# [7] = system: MCF7; test: In vitro anticancer screening, MTT cell viability; assay type: cell-based; conditions: Homo sapiens; for inhibition at 100 µM: MCF7, 100 μM dose, read-out: Growth inhibition (%)
# Experimental: as §5, §6
# [8] = system: HCT116; test: In vitro anticancer screening, MTT cell viability; assay type: cell-based; conditions: Homo sapiens, HCT-116; for inhibition at 100 µM: HCT116, 100 μM dose, read-out: Growth inhibition (%); for IC50: HCT116, MTT, 48 h
# Experimental: as §5, §6
# [9] = system: PC3; test: In vitro anticancer screening, MTT cell viability; assay type: cell-based; conditions: Homo sapiens, PC-3; for inhibition at 100 µM: PC3, 100 μM dose, read-out: Growth inhibition (%); for IC50: PC3, MTT, 48 h
# Experimental: as §5, §6
# PDGFRβ, sequence (P09619 33-1106, species assumed): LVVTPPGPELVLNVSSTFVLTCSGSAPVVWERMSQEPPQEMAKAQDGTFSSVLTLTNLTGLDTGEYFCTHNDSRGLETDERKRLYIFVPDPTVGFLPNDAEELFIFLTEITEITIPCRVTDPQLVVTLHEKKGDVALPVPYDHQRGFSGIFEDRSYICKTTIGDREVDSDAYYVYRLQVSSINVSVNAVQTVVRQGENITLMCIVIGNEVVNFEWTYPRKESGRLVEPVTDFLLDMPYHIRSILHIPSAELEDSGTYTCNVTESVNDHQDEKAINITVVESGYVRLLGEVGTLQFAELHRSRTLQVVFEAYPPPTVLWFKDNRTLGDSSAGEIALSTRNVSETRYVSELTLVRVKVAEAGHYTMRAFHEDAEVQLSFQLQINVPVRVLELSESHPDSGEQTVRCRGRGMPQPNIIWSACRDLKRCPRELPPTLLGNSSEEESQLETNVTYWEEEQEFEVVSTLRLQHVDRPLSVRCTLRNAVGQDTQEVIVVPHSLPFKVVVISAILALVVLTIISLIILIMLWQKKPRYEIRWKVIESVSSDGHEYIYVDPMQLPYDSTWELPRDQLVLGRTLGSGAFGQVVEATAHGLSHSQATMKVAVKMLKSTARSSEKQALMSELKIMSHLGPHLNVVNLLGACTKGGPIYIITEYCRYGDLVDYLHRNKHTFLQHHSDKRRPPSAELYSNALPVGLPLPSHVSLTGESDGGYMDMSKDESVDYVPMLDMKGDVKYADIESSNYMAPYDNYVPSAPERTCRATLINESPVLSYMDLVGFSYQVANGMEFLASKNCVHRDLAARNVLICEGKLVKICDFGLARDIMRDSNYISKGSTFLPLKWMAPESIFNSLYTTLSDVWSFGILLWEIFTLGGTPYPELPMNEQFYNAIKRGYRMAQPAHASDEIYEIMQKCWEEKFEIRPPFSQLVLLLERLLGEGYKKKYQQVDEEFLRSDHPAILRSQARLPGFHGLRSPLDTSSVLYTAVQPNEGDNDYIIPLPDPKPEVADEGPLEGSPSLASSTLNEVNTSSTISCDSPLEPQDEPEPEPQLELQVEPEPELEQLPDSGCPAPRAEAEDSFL
# EGFR, sequence (P00533 25-1210, species assumed): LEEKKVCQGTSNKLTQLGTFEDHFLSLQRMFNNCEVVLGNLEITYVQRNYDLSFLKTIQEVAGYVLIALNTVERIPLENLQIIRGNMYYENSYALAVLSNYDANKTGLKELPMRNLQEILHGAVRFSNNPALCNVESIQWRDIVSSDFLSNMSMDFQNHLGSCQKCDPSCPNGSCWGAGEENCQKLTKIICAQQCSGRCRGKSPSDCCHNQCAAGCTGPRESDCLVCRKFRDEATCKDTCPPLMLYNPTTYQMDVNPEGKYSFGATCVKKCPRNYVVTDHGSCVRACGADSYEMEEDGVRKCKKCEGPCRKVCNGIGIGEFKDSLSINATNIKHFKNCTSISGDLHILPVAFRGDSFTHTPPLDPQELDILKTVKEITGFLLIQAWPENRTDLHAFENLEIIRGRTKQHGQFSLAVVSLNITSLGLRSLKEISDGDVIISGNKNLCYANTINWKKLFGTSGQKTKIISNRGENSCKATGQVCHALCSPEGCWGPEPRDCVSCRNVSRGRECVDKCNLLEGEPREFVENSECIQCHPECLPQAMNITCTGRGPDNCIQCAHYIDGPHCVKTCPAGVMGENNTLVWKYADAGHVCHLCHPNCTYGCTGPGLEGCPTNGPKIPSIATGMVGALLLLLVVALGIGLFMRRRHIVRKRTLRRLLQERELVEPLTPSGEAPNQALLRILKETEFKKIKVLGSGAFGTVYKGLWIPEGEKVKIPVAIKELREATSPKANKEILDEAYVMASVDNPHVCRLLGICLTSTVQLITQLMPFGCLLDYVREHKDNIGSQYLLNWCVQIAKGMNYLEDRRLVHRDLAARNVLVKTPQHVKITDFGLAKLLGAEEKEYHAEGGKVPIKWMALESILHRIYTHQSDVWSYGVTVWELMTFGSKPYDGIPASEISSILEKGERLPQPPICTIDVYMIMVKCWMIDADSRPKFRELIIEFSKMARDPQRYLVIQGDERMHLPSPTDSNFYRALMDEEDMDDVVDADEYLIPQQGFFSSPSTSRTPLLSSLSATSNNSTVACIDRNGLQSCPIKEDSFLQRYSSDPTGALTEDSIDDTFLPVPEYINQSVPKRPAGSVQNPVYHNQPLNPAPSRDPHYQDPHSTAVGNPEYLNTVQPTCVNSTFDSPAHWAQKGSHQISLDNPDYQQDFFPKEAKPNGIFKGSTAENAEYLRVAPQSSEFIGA
# PI3K (p110a/p85a), sequence (P42336 whole entry): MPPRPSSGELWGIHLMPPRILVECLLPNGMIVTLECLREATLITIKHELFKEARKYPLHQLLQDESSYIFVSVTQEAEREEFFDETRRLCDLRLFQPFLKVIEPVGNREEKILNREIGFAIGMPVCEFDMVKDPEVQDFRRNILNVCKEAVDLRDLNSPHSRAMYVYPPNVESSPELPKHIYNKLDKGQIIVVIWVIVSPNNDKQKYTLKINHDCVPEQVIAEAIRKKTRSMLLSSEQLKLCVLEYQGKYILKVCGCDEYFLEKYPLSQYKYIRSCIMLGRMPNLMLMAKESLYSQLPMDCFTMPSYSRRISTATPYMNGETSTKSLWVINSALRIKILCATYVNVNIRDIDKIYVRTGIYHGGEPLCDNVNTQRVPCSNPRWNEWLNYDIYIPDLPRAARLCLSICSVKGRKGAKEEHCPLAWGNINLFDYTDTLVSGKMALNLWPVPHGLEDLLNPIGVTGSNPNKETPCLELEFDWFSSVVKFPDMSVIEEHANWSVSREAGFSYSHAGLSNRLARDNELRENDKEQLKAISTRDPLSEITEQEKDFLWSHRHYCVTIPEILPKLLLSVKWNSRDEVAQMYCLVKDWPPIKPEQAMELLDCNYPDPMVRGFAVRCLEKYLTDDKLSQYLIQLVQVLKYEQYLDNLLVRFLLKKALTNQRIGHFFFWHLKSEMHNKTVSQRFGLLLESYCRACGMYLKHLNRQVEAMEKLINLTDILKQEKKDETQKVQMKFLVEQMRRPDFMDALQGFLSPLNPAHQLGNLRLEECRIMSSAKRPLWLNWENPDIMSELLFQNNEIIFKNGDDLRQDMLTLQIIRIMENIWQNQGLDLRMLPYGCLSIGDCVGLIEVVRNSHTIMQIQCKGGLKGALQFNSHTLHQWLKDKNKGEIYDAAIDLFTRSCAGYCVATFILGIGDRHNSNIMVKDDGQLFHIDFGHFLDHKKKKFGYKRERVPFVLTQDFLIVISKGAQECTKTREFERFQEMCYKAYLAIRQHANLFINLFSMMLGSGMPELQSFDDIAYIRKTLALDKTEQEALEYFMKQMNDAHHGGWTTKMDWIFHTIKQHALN
# PI3K (p110a/p85a), sequence (P27986 whole entry partner): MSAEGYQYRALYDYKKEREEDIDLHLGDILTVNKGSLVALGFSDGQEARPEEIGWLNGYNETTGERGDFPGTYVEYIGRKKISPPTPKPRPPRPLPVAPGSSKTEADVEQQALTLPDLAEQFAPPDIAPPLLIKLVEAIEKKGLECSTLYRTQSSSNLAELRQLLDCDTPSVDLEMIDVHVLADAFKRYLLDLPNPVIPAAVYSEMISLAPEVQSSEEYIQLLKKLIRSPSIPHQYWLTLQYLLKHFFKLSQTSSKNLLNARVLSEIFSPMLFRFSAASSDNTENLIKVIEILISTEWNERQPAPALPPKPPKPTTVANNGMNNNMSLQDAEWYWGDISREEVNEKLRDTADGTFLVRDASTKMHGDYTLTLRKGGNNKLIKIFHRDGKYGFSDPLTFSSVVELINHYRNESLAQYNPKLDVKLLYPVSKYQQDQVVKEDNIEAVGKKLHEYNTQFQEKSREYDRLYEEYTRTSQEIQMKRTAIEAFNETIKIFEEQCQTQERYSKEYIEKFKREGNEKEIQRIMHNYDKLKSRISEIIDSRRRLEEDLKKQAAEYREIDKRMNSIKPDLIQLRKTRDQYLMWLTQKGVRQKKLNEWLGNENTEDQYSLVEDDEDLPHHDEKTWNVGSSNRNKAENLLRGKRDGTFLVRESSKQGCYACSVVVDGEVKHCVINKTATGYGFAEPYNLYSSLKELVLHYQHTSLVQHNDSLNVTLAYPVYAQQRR
# CDK4/CyclinD1, sequence (P11802 whole entry, species assumed): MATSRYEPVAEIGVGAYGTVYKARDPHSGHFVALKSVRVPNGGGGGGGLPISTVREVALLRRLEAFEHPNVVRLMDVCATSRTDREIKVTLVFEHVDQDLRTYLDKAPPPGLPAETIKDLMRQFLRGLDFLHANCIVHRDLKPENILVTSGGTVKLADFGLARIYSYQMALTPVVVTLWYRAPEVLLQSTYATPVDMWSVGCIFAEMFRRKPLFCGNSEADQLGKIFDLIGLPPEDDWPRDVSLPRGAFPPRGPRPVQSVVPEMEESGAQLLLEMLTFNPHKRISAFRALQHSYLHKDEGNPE
# CDK4/CyclinD1, sequence (P24385 whole entry partner, species assumed): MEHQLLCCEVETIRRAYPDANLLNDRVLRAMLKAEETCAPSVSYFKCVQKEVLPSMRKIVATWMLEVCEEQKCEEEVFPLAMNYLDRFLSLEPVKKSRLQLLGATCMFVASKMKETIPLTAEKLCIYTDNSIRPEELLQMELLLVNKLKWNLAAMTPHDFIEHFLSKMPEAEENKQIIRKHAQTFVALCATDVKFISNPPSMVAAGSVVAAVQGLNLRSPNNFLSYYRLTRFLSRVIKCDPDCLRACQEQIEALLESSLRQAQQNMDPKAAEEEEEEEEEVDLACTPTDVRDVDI
inhibition at 50 µM ([1]; 50 μM) [%],inhibition at 100 µM ([1]; 100 μM) [%],inhibition at 50 µM ([2]; 50 μM) [%],inhibition at 100 µM ([2]; 100 μM) [%],inhibition at 50 µM ([3]; 50 μM) [%],inhibition at 100 µM ([3]; 100 μM) [%],inhibition at 50 µM ([4]; 50 μM) [%],inhibition at 100 µM ([4]; 100 μM) [%],melting point [°C],"IC50 ([5]; A549, MTT, 48 h) [µM]",IC50 [6] [µM],"IC50 ([7]; MCF7, MTT, 48 h) [µM]",IC50 [8] [µM],IC50 [9] [µM],Structure (SMILES),inhibition at 100 µM [5] [%],inhibition at 100 µM [6] [%],inhibition at 100 µM [7] [%],inhibition at 100 µM [8] [%],inhibition at 100 µM [9] [%]
-178,-185,83,90,79,85,31,73,> 300,3.21 ± 0.4,0.3,9.1 ± 2.1,6.9 ± 0.5,5.3 ± 0.09,COc1cccc(-c2cc(-c3cccnc3)nc3nc(-n4[nH]c(C)cc4=O)[nH]c(=O)c23)c1 [Target],99,100,87,99,100
–,–,–,–,–,–,–,–,–,–,0.6,–,12.8 ± 1,6.8 ± 1.2,"COc1cccc2c1C(=O)c1c(O)c3c(c(O)c1C2=O)C[C@@](O)(C(=O)CO)C[C@@H]3O[C@H]1C[C@H](N)[C@H](O)[C@H](C)O1 [doxorubicin, reference compound]",100,100,91,100,100
